The values below come from ChEMBL document CHEMBL1201862, “PubChem BioAssay data set” (2004).

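Briefly, cells in 96-well plates were exposed to five compound concentrations for 48 h, and endpoints were estimated by linear interpolation. The concentration for 50% growth inhibition is given as GI50.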 Calls of active or inactive are those of the source. Rule as the data show it: active = GI50 up to about 1.1 µM and inactive = higher.

Some test systems named below: CCRF-CEM; OVCAR-4; OVCAR-8; RPMI-8226; CAKI-1; SF-295; SK-MEL-2; NCI-H522; K562; NCI-H23; RXF 393; UACC-62; SK-MEL-28; EKVX; A498; HCT-15; MDA-MB-231; PC-3; NCI/ADR-RES.
Common to all, as to test: DTP human tumour cell line panel, 48 h

Broadly, the GI50 is the concentration giving 50% growth inhibition.

As for `Cc1ccc(NC(=O)/C(C#N)=C/c2ccccc2)c(C)c1`, the GI50 in the experiment on CCRF-CEM, in the experiment with OVCAR-4, with OVCAR-8, with RPMI-8226, in the experiment on CAKI-1 and with SF-295 was > 100 µM (inactive) each time. The GI50 with SK-MEL-2, in the experiment with NCI-H522, in the experiment with K562, in the experiment with NCI-H23, with RXF 393 and in the experiment with UACC-62 was > 100 µM (inactive) each time. The GI50 in the experiment with SK-MEL-28 was > 100 µM (inactive); with EKVX, > 100 µM (inactive); in the experiment with A498, > 100 µM (inactive); with HCT-15, over 100 µM.
`COc1ccc2c(c1)[n+]([O-])c(C(=O)C/C(=N\NC(=O)C[N+](C)(C)C)C(=O)Nc1cc(Cl)ccc1Cl)c(C)[n+]2[O-]`: the GI50 in the experiment with CCRF-CEM, in the experiment with OVCAR-4, in the experiment on OVCAR-8, in the experiment with RPMI-8226, in the experiment on CAKI-1 and in the experiment with SF-295 was > 100 µM (inactive) in each case. Also, the GI50 in the experiment with SK-MEL-2 is > 100 µM (inactive); with NCI-H522, > 100 µM (inactive); in the experiment on K562, > 100 µM (inactive); with NCI-H23 it was > 100 µM (inactive); with RXF 393, > 100 µM (inactive); in the experiment with UACC-62 it was 97.7 µM (inactive). Moreover, the GI50 in the experiment on SK-MEL-28 was > 100 µM (inactive); in the experiment with EKVX it was 0.0891 µM (active); with A498 it was > 100 µM (inactive); with HCT-15 it was over 100 µM.
As to `CCOC(=O)c1ccc2c(c1)nc1n2C(c2c(F)cccc2F)SC1` (stereo unspecified), the GI50 in the experiment with CCRF-CEM is 33.5 µM (inactive); in the experiment on OVCAR-4, 46.6 µM (inactive); with OVCAR-8, 21.6 µM (inactive); with RPMI-8226, 21.8 µM (inactive); in the experiment with CAKI-1, 78.3 µM (inactive); with SF-295 it was 21.5 µM (inactive). The GI50 with SK-MEL-2 is 15.2 µM (inactive); with MDA-MB-231, > 100 µM (inactive); with K562, 29.1 µM (inactive); in the experiment on NCI-H23 it was 17.6 µM (inactive); with RXF 393, 51.6 µM (inactive); in the experiment with UACC-62, 25.4 µM (inactive). Further, the GI50 with SK-MEL-28 was 97.1 µM (inactive); in the experiment with PC-3 it was 21.3 µM (inactive); in the experiment with A498 it was > 100 µM (inactive); in the experiment with HCT-15 it was 23.3 µM; in the experiment with NCI/ADR-RES, 18.8 µM (inactive).
With `C/C(=N\NC(=S)N1CCN(C)CC1)c1nc2cccnc2[nH]1`, the GI50 with CCRF-CEM, with OVCAR-4, in the experiment with OVCAR-8, with RPMI-8226, with CAKI-1 and with SF-295 was > 100 µM (inactive) throughout. The GI50 in the experiment on MDA-MB-231 was > 100 µM (inactive); with NCI-H522, > 100 µM (inactive); in the experiment on K562, 92.3 µM (inactive); in the experiment with NCI-H23, > 100 µM (inactive); in the experiment on UACC-62, > 100 µM (inactive); in the experiment with SK-MEL-28, > 100 µM (inactive). For the same molecule, the GI50 with PC-3 is > 100 µM (inactive); with EKVX, > 100 µM (inactive); in the experiment on A498 it was > 100 µM (inactive); with HCT-15, over 100 µM; in the experiment with NCI/ADR-RES, > 100 µM (inactive).
For the molecule `COc1ccc(-c2cc(C(=O)Nc3cccc(C(F)(F)F)c3)nc(S)n2)cc1`, the GI50 in the experiment on CCRF-CEM, in the experiment on OVCAR-4, in the experiment with OVCAR-8, with RPMI-8226, in the experiment with CAKI-1 and with SF-295 was > 100 µM (inactive) throughout. The GI50 in the experiment on SK-MEL-2, in the experiment on NCI-H522, in the experiment on K562, in the experiment on NCI-H23, in the experiment with RXF 393 and in the experiment with UACC-62 was > 100 µM (inactive) each time. Besides, the GI50 in the experiment on SK-MEL-28 is > 100 µM (inactive); with EKVX it was > 100 µM (inactive); in the experiment with A498 it was > 100 µM (inactive); in the experiment with HCT-15, over 100 µM.
Consider `NC(CO)c1ccc(OCc2ccccc2)cc1` (stereo unspecified), for which the GI50 with CCRF-CEM is 40.6 µM (inactive); with OVCAR-4, > 92.7 µM (inactive); in the experiment with OVCAR-8, > 100 µM (inactive); in the experiment on RPMI-8226, > 100 µM (inactive); in the experiment with CAKI-1 it was > 53.7 µM (inactive); with SF-295, > 100 µM (inactive). Also, the GI50 was > 100 µM (inactive) in the experiment with SK-MEL-2; 42 µM (inactive) in the experiment with NCI-H522; > 100 µM (inactive) in the experiment on K562; > 100 µM (inactive) in the experiment on NCI-H23; > 73.5 µM (inactive) in the experiment on RXF 393; > 70.8 µM (inactive) in the experiment on UACC-62. The GI50 was > 100 µM (inactive) in the experiment with SK-MEL-28, 89.3 µM (inactive) with EKVX, > 100 µM (inactive) with A498 and over 91.8 µM in the experiment with HCT-15.
On to `Cc1ccc(-n2c(N)c(C#N)c3[nH]nc(N)c3c2=O)cc1`, for which the GI50 in the experiment on CCRF-CEM, in the experiment with OVCAR-4, in the experiment on OVCAR-8, with RPMI-8226, in the experiment with CAKI-1 and in the experiment on SF-295 was > 100 µM (inactive) throughout. The GI50 in the experiment with SK-MEL-2, in the experiment on MDA-MB-231, in the experiment on K562, with NCI-H23, in the experiment on RXF 393 and in the experiment with UACC-62 was > 100 µM (inactive) each time. The GI50 in the experiment on SK-MEL-28 was > 100 µM (inactive); in the experiment with PC-3, > 100 µM (inactive); in the experiment on EKVX, 95.1 µM (inactive); in the experiment on A498, > 100 µM (inactive); with HCT-15, over 100 µM; with NCI/ADR-RES, > 100 µM (inactive).
Take `CN(C)CCc1ccc(Cl)cc1Cl`: the GI50 in the experiment on CCRF-CEM, in the experiment with OVCAR-4, with OVCAR-8, in the experiment with RPMI-8226, with CAKI-1 and with SF-295 was > 100 µM (inactive) in each case. Further, the GI50 in the experiment on SK-MEL-2, in the experiment on NCI-H522, with K562, in the experiment on NCI-H23, in the experiment on RXF 393 and in the experiment with UACC-62 was > 100 µM (inactive) each time. Besides, the GI50 is > 100 µM (inactive) with SK-MEL-28, > 100 µM (inactive) with EKVX, > 100 µM (inactive) in the experiment with A498 and over 100 µM in the experiment with HCT-15.
Regarding `COc1cc2c(cc1OS(C)(=O)=O)N=C[C@@H]1CCCN1C2=O`, the GI50 in the experiment with CCRF-CEM is 72.3 µM (inactive); in the experiment on OVCAR-4, > 100 µM (inactive); in the experiment on OVCAR-8 it was > 100 µM (inactive); in the experiment on RPMI-8226, > 100 µM (inactive); in the experiment on CAKI-1, > 100 µM (inactive); in the experiment on SF-295, > 100 µM (inactive). For the same molecule, the GI50 with SK-MEL-2, in the experiment with MDA-MB-231, with NCI-H522, in the experiment on NCI-H23, in the experiment with RXF 393 and in the experiment with UACC-62 was > 100 µM (inactive) throughout. In addition, the GI50 in the experiment with SK-MEL-28 is > 100 µM (inactive); in the experiment with EKVX, > 100 µM (inactive); in the experiment with A498, > 100 µM (inactive); in the experiment on HCT-15, over 100 µM.
With `COc1cc2cc3c4c(cc(OC)c(OC)c4c2cc1OC)CCN3C(=O)CCC(=O)O`, the GI50 with CCRF-CEM, in the experiment on OVCAR-4, with RPMI-8226, in the experiment on CAKI-1, with SF-295 and in the experiment on SK-MEL-2 was > 100 µM (inactive) each time. In addition, the GI50 in the experiment on NCI-H522, in the experiment with K562, with NCI-H23, in the experiment with RXF 393, in the experiment with UACC-62 and with SK-MEL-28 was > 100 µM (inactive) throughout. The GI50 in the experiment on EKVX is > 100 µM (inactive); in the experiment on A498, 97.9 µM (inactive).
On to `COc1ccc(-[n+]2nc(S(=O)(=O)O)c(/C=C/c3ccc(N(C)C)cc3)cc2C#N)cc1`, for which the GI50 in the experiment on CCRF-CEM, in the experiment with OVCAR-4, in the experiment on OVCAR-8, in the experiment with RPMI-8226, with CAKI-1 and with SF-295 was > 100 µM (inactive) throughout. For the same molecule, the GI50 with SK-MEL-2, in the experiment on MDA-MB-231, in the experiment with NCI-H522, in the experiment with K562, with NCI-H23 and in the experiment with UACC-62 was > 100 µM (inactive) throughout. The GI50 in the experiment on SK-MEL-28 is > 100 µM (inactive); in the experiment with PC-3, > 100 µM (inactive); in the experiment on EKVX, > 100 µM (inactive); with A498 it was > 100 µM (inactive); with HCT-15 it was over 100 µM; in the experiment on NCI/ADR-RES it was > 100 µM (inactive).
In the case of `O=C(O)c1cc2ccc(Cl)cc2c(O)c1C1=CCCCC1`, the GI50 in the experiment on CCRF-CEM was 41.7 µM (inactive); with OVCAR-4, 23.2 µM (inactive); in the experiment with OVCAR-8, 40.4 µM (inactive); with RPMI-8226, 34.6 µM (inactive); in the experiment with CAKI-1, 33.2 µM (inactive); in the experiment on SF-295, 32.3 µM (inactive). The GI50 is 19.9 µM (inactive) with SK-MEL-2; 29 µM (inactive) with NCI-H522; 33.1 µM (inactive) in the experiment with K562; 26.4 µM (inactive) in the experiment on NCI-H23; 36.5 µM (inactive) in the experiment on RXF 393; 24.5 µM (inactive) in the experiment on UACC-62. Moreover, the GI50 is 66.5 µM (inactive) with SK-MEL-28, 43.4 µM (inactive) with EKVX, 32.6 µM (inactive) with A498 and 56.8 µM with HCT-15.
